According to US20200291355A1, “ENGINEERED ERYTHROID CELLS INCLUDING LOADABLE ANTIGEN-PRESENTING POLYPEPTIDES AND METHODS OF USE” (Rubius Therapeutics, Inc., priority 2019, published 2020):

Test system: wt HLA-A2 or ds HLA-A2 antigen-presenting polypeptide (HLA*02:01)
Assay: Binding kinetics of TAMRA-labeled HPV E7 antigenic polypeptides onto engineered enucleated erythroid cells (flow cytometry)
Set-up: species or system human
Settings: 10 ng/mL, about 90 minutes, 4° C., RT and 37° C.
Procedure: To examine the antigenic polypeptide loading kinetics of loadable antigen-presenting polypeptides, the following experiment was performed.

With YMLDLQPKT [HPV E7-E18K] the “Loading rate of fluorescent peptide compared with HPV E7-GGK” value (onto cells including ds HLA-A2) was “more rapidly” and the “Loading rate of fluorescent peptide compared with HPV E7-GGK” value (onto cells including wt HLA-A2) was “more rapidly”.
